Laboratory results as given in ChEMBL document CHEMBL5724914, “Linking interpersonal differences in gut microbiota composition and drug biotransformation activity” (2024).
Where a SMILES comes first, the peptide text is derived from it. [ ]: non-standard residue; d: D form. pGlu = O=C1CC[C@@H](C(=O)O)N1; Thz = O=C(O)[C@@H]1CSCN1

Key:
[1] = human gut metagenome, 24 h, 2 µM
[2] = human gut metagenome, 24 h, 2 µM; remark: listed apart in the source
[3] = human gut metagenome, 24 h, 2 µM; remark: listed apart in the source
[4] = (§1) The drug is tested on Z-030 corresponding to mouse gut metagenome with ENA study accession number: PRJEB37062 and ENA sample accession number: ERS12561829 for biotransformation under anaerobic condition. The drug concentrations were measured over 9 timepoints collected between 0 and 24 hours of incubation by liquid-chromatography-coupled mass spectrometry (LC–MS); conditions: 2 µM
[5] = human gut metagenome, 24 h, 2 µM; remark: listed apart in the source
[6] = human gut metagenome, 24 h, 2 µM; remark: listed apart in the source
[7] = human gut metagenome, 24 h, 2 µM; remark: listed apart in the source
[8] = as §1, with “Z-025” for “Z-030”, “rabbit” for “mouse”, “ERS12561824” for “ERS12561829”; conditions: 2 µM
[9] = human gut metagenome, 24 h, 2 µM; remark: listed apart in the source
[10] = as §1, with “WLS-350” for “Z-030”, “human” for “mouse”, “ERS12561789” for “ERS12561829”; conditions: 2 µM
[11] = as §1, with “WLS-006” for “Z-030”, “human” for “mouse”, “ERS12561741” for “ERS12561829”; conditions: 2 µM
[12] = as §1, with “Z-020” for “Z-030”, “rabbit” for “mouse”, “ERS12561819” for “ERS12561829”; conditions: 2 µM
[13] = human gut metagenome, 24 h, 2 µM; remark: listed apart in the source
[14] = as §1, with “Z-004” for “Z-030”, “to” for “to mouse gut”, “ERS12561804” for “ERS12561829”; conditions: 2 µM
[15] = as §1, with “Z-005” for “Z-030”, “to” for “to mouse gut”, “ERS12561805” for “ERS12561829”; conditions: 2 µM
[16] = human gut metagenome, 24 h, 2 µM; remark: listed apart in the source
[17] = human gut metagenome, 24 h, 2 µM; remark: listed apart in the source
[18] = human gut metagenome, 24 h, 2 µM; remark: listed apart in the source
[19] = as §1, with “WLS-073” for “Z-030”, “human” for “mouse”, “ERS12561749” for “ERS12561829”; conditions: 2 µM
[20] = as §1, with “WLS-082” for “Z-030”, “human” for “mouse”, “ERS12561751” for “ERS12561829”; conditions: 2 µM
Further: call rule not given here.

Structure (SMILES)	Bacterial Biotransformation [1]	Bacterial Biotransformation [2]	Bacterial Biotransformation [3]	Bacterial Biotransformation [4]	Bacterial Biotransformation [5]	Bacterial Biotransformation [6]	Bacterial Biotransformation [7]	Bacterial Biotransformation [8]	Bacterial Biotransformation [9]	Bacterial Biotransformation [10]	Bacterial Biotransformation [11]	Bacterial Biotransformation [12]	Bacterial Biotransformation [13]	Bacterial Biotransformation [14]	Bacterial Biotransformation [15]	Bacterial Biotransformation [16]	Bacterial Biotransformation [17]	Bacterial Biotransformation [18]	Bacterial Biotransformation [19]	Bacterial Biotransformation [20]
CC(O)(CS(=O)(=O)c1ccc(F)cc1)C(=O)Nc1ccc(C#N)c(C(F)(F)F)c1 (stereo unspecified) [BICALUTAMIDE]	Compound NOT metabolized	Compound NOT metabolized	Compound NOT metabolized	Compound NOT metabolized	Compound NOT metabolized	Compound NOT metabolized	Compound NOT metabolized	Compound NOT metabolized	Compound NOT metabolized	Compound NOT metabolized	Compound NOT metabolized	Compound NOT metabolized	Compound NOT metabolized	Compound NOT metabolized	Compound NOT metabolized	Compound NOT metabolized	Compound NOT metabolized	Compound NOT metabolized		
CCCC1O[C@@H]2C[C@H]3[C@@H]4CCC5=CC(=O)C=C[C@]5(C)[C@H]4[C@@H](O)C[C@]3(C)[C@]2(C(=O)CO)O1 (stereo partly specified) [BUDESONIDE]	Compound metabolized	Compound metabolized	Compound metabolized	Compound NOT metabolized	Compound NOT metabolized	Compound NOT metabolized	Compound metabolized	Compound NOT metabolized	Compound metabolized	Compound metabolized	Compound metabolized	Compound NOT metabolized	Compound metabolized	Compound NOT metabolized	Compound metabolized	Compound metabolized	Compound metabolized	Compound metabolized	Compound NOT metabolized	
O=C(NCc1ccccc1)OCCO [BURAMATE]	Compound NOT metabolized	Compound NOT metabolized	Compound NOT metabolized	Compound NOT metabolized	Compound NOT metabolized	Compound NOT metabolized	Compound NOT metabolized	Compound NOT metabolized	Compound NOT metabolized	Compound NOT metabolized	Compound NOT metabolized		Compound NOT metabolized	Compound NOT metabolized	Compound NOT metabolized	Compound NOT metabolized	Compound NOT metabolized	Compound NOT metabolized	Compound NOT metabolized	Compound NOT metabolized
CCCCCCOC(=O)/N=C(/N)c1ccc(NCc2nc3cc(C(=O)N(CCC(=O)OCC)c4ccccn4)ccc3n2C)cc1.CS(=O)(=O)O [DABIGATRAN ETEXILATE MESYLATE]			Compound NOT metabolized	Compound NOT metabolized				Compound NOT metabolized		Compound NOT metabolized		Compound NOT metabolized		Compound NOT metabolized	Compound NOT metabolized	Compound NOT metabolized	Compound NOT metabolized	Compound NOT metabolized		
C[C@@H]1C[C@H]2[C@@H]3CCC4=CC(=O)C=C[C@]4(C)[C@@]3(F)[C@@H](O)C[C@]2(C)[C@@]1(O)C(=O)CO [DEXAMETHASONE]	Compound NOT metabolized	Compound NOT metabolized	Compound NOT metabolized	Compound NOT metabolized	Compound NOT metabolized	Compound NOT metabolized	Compound NOT metabolized	Compound NOT metabolized	Compound NOT metabolized	Compound NOT metabolized		Compound metabolized	Compound NOT metabolized	Compound metabolized	Compound metabolized	Compound NOT metabolized	Compound NOT metabolized	Compound NOT metabolized	Compound NOT metabolized	
c1ccc([C@H]2CN3CCSC3=N2)cc1 [LEVAMISOLE]	Compound metabolized	Compound metabolized	Compound metabolized	Compound NOT metabolized	Compound NOT metabolized	Compound metabolized		Compound NOT metabolized	Compound metabolized	Compound metabolized	Compound metabolized	Compound NOT metabolized	Compound metabolized	Compound NOT metabolized		Compound metabolized	Compound metabolized	Compound metabolized		
C#C[C@]1(O)CC[C@H]2[C@@H]3CCC4=CC(=O)CC[C@@H]4[C@H]3CC[C@@]21CC [LEVONORGESTREL]		Compound metabolized	Compound metabolized	Compound NOT metabolized	Compound NOT metabolized	Compound NOT metabolized	Compound metabolized	Compound metabolized	Compound metabolized	Compound metabolized	Compound metabolized	Compound metabolized	Compound metabolized	Compound metabolized		Compound metabolized	Compound metabolized	Compound metabolized	Compound NOT metabolized	Compound metabolized
COc1c(C)c2c(c(O)c1C/C=C(\C)CCC(=O)OCCN1CCOCC1)C(=O)OC2 [MYCOPHENOLATE MOFETIL]	Compound metabolized	Compound metabolized	Compound metabolized	Compound NOT metabolized	Compound metabolized	Compound metabolized	Compound metabolized	Compound metabolized	Compound metabolized	Compound metabolized	Compound metabolized		Compound metabolized	Compound metabolized	Compound metabolized	Compound metabolized	Compound metabolized	Compound metabolized	Compound metabolized	Compound metabolized
C=CCN1CC[C@]23c4c5ccc(O)c4O[C@H]2C(=O)CC[C@@]3(O)[C@H]1C5 [NALOXONE]	Compound metabolized	Compound NOT metabolized	Compound NOT metabolized	Compound NOT metabolized	Compound NOT metabolized	Compound NOT metabolized	Compound NOT metabolized	Compound NOT metabolized	Compound NOT metabolized	Compound NOT metabolized		Compound NOT metabolized	Compound NOT metabolized	Compound NOT metabolized	Compound NOT metabolized	Compound NOT metabolized	Compound NOT metabolized	Compound NOT metabolized	Compound NOT metabolized	Compound NOT metabolized
O=C1CC[C@@H](C(=O)N2CSC[C@H]2C(=O)O)N1 [PIDOTIMOD] ([pGlu]-[Thz]-OH)	Compound NOT metabolized		Compound NOT metabolized	Compound NOT metabolized	Compound NOT metabolized			Compound NOT metabolized	Compound NOT metabolized	Compound NOT metabolized		Compound NOT metabolized		Compound NOT metabolized	Compound metabolized	Compound NOT metabolized	Compound NOT metabolized	Compound NOT metabolized	Compound NOT metabolized	Compound NOT metabolized
